Reference: patent publication US20050182078A1, “2-(Pyridin-3-ylamino)-pyrido[2,3-D]pyrimidin-7-ones” (WARNER-LAMBERT COMPANY, LLC, priority 2004, published 2005)
Where a name gives a salt, the structure may show the parent alone.

Experiments:
CDK2/cyclin A = CDK2/cyclin A (Homo sapiens, UniProt P24941); assay: Assay for Inhibition of CDK2/Cyclin A; assay type: biochemical; conditions: 20 ng CDK2/cyclin A, retinoblastoma protein substrate, [32P]ATP, 25° C. 15 minutes
Method: (§1) To determine the inhibitory potency and selectivity of compounds of the present invention against CDK4 and related kinases, compounds were evaluated in standard assays routinely used to measure inhibition of cyclin-dependent kinase enzymes and other protein kinases (see for example D. W. Fry et al., J. Biol. Chem. 2001, 276, 16617-16623). The assays were carried out as described below.
Assay for Inhibition of CDK2/Cyclin A
CDK2 enzyme assays for IC50 determinations and kinetic evaluation are performed as follows. 96-well filter plates (Millipore MADVN6550, Bedford, Mass.) are used. The final assay volume is 0.1 mL containing buffer A (20 mM TRIS (tris[hydroxymethyl]aminomethane) (pH 7.4), 50 mM NaCl, 1 mM dithiothreitol, 10 mM MgCl2), […] ATP containing 0.25 μCi [^32P]ATP, 20 ng CDK2/cyclin A, 1 μg retinoblastoma protein, and the test compound at appropriate dilutions in buffer A (Buffer A alone without added test compound was employed as a control for no inhibition. Buffer A containing excess ethylenediamine tetra acetic acid (EDTA) was used to determine the level of background ^32P in the absence of enzyme activity). All components except the ATP are added to the wells, and the plate is placed on a plate mixer for 2 minutes. The reaction is initiated by addition of [^32P]ATP, and the plate is incubated at 25° C. for 15 minutes. The reaction is terminated by addition of 0.1 mL 20% trichloroacetic acid (TCA). The plate is kept at 4° C. for at least 1 hour to allow the substrate to precipitate. The wells are then washed five times with 0.2 mL 10% TCA, and ^32P incorporation is determined with a beta plate counter (Wallac Inc., Gaithersburg, Md.). The IC50 of the test compound was determined using the median effect method (Chou, T-C and Talalay, P. Applications of the median effect principle for the assessment of low-dose risk of carcinogens and for the quantitation of synergism and antagonism of chemotherapeutic agents. In: New Avenues in Developmental Cancer Chemotherapy (Eds. Harrap, K. T. and Connors, T. A.), pp. 37-64. Academic Press, New York, 1987).

CDK4/Cyclin D = CDK4/Cyclin D (Homo sapiens, UniProt P11802); assay: Assay for Inhibition of CDK4/Cyclin D; assay type: biochemical; conditions: 20 ng CDK4, retinoblastoma protein substrate, 25 μM ATP, 25° C. 15 minutes
Method: as §1
Assay for Inhibition of CDK4/Cyclin D
The CDK4 enzyme assay for IC50 determination and kinetic evaluation is performed as follows. 96-well filter plates (Millipore MADVN6550, Bedford, Mass.) are used. The total volume is 0.1 mL containing buffer A (20 mM TRIS (tris[hydroxymethyl]aminomethane)) (pH 7.4), 50 mM NaCl, 1 mM dithiothreitol, 10 mM MgCl2), 25 μM ATP containing 0.25 μCi [^32P]ATP, 20 ng CDK4, 1 μg retinoblastoma protein and the test compound at appropriate dilutions in buffer A. Buffer A alone without added test compound was employed as a control for no inhibition. Buffer A containing excess EDTA was used to determine the level of background ^32P in the absence of enzyme activity. All components except the ATP are added to the wells, and the plate is placed on a plate mixer for 2 minutes. The reaction is started by adding [^32P]ATP, and the plate is incubated at 25° C. for 15 minutes. The reaction is terminated by addition of 0.1 mL 20% trichloroacetic acid (TCA). The plate is kept at 4° C. for at least 1 hour to allow the substrate to precipitate. The wells are then washed five times with 0.2 mL 10% TCA, and ^32P incorporation is determined with a beta plate counter (Wallac Inc., Gaithersburg, Md.). The IC50 of the test compound was determined using the median effect method (Chou, T-C and Talalay, P. Applications of the median effect principle for the assessment of low-dose risk of carcinogens and for the quantitation of synergism and antagonism of chemotherapeutic agents. In: New Avenues in Developmental Cancer Chemotherapy (Eds. Harrap, K. T. and Connors, T. A.), pp. 37-64. Academic Press, New York, 1987).

neointima formation = conditions: in rats; Brooks E. E. et al., J. Biol. Chem. 1997; cited from earlier work

CDK4/Cyclin D, sequence (P11802 whole entry, species assumed): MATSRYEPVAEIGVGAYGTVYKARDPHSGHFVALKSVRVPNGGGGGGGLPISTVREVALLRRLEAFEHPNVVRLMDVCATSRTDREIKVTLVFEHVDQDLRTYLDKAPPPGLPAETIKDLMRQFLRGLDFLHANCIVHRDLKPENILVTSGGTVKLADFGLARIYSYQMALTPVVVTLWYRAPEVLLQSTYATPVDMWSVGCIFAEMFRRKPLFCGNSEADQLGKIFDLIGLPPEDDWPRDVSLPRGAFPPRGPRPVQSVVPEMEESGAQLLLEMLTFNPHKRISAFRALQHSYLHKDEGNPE
CDK4/Cyclin D, sequence (P24385 whole entry partner, species assumed): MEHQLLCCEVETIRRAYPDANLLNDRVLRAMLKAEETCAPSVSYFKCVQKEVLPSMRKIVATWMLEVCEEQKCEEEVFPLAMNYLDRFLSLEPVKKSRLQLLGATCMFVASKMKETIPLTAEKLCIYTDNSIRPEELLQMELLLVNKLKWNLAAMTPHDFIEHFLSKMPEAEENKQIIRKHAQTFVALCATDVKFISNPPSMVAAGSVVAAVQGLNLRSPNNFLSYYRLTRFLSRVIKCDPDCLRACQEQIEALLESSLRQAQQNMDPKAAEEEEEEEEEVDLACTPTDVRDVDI

IC50 (CDK2/cyclin A) [nM] | melting point [°C] | IC50 (CDK4/Cyclin D) [nM] | Structure (SMILES) | inhibition of neointima formation (neointima formation)
1020 | 254 to 256 | 99 | Cc1c(Br)c(=O)n(C2CCCC2)c2nc(Nc3ccc(N4CCOCC4)nc3)ncc12 [Example 4, 6-Bromo-8-cyclopentyl-5-methyl-2-(6-morpholin-4-yl-pyridin-3-ylamino)-8H-pyrido[2,3-d]pyrimidin-7-one] | 
260 | 125 | 3 | CC(=O)c1c(C)c2cnc(Nc3ccc(N4CCNCC4)nc3)nc2n(C2CCCC2)c1=O [Example 7, 6-Acetyl-8-cyclopentyl-5-methyl-2-(6-piperazin-1-yl-pyridin-3-ylamino)-8H-pyrido[2,3-d]pyrimidin-7-one] | 
29 | 181 to 182 | 82 | COc1ccc(Nc2ncc3ccc(=O)n(C4CCCC4)c3n2)cn1 [Example 2, 8-Cyclopentyl-2-(6-methoxy-pyridin-3-ylamino)-8H-pyrido[2,3-d]pyrimidin-7-one] | 
 | 224 to 226 |  | CC(=O)c1c(C)c2cnc(Nc3ccc(N4CCOCC4)nc3)nc2n(C2CCCC2)c1=O [Example 5, 6-Acetyl-8-cyclopentyl-5-methyl-2-(6-morpholin-4-yl-pyridin-3-ylamino)-8H-pyrido[2,3-d]pyrimidin-7-one] | 
235 | 156 to 158 | 535 | CC(C)n1c(=O)ccc2cnc(Nc3cccnc3)nc21 [Example 1, 8-Isopropyl-2-(pyridin-3-ylamino)-8H-pyrido[2,3-d]pyrimidin-7-one] | 
190 |  | 12 | O=c1c(Br)cc2cnc(Nc3ccc(N4CCNCC4)nc3)nc2n1C1CCCC1 [Example 3, 6-Bromo-8-cyclopentyl-2-(6-piperazin-1-yl-pyridin-3-ylamino)-8H-pyrido[2,3-d]pyrimidin-7-one hydrochloride salt] | 
 |  |  | COc1ccc(CNc2nc(N(CCO)CCO)nc3c2ncn3C(C)C)cc1 [CVT-313] | greater than 80%
3200 | 290 | 22 | Cc1c(Br)c(=O)n(C2CCCC2)c2nc(Nc3ccc(N4CCNCC4)nc3)ncc12 [Example 6, 6-Bromo-8-cyclopentyl-5-methyl-2-(6-piperazin-1-yl-pyridin-3-ylamino)-8H-pyrido[2,3-d]pyrimidin-7-one] | 
